Results taken from US20200179312A1, “ANALOGUES OF CYSTEAMINE AS THERAPEUTIC AGENTS FOR CYSTIC FIBROSIS” (I.E.R.F.C. EUROPEAN INSTITUTE FOR CYSTIC FIBROSIS RESEARCH, priority 2018, published 2020).

Assays:
F508delCFTR [1] = biological target: T1, F508delCFTR (Homo sapiens, UniProt P13569, DEL508-508); assay: SPQ assay in primary nasal cells collected by nasal brushing from CF patients; type: cell-based; set-up: Freshly isolated brushed nasal epithelial cells were collected by nasal brushing; endogenous in cells; host or cells: primary nasal epithelial cells from F508del-homozygous CF patients
Experimental: The compounds of formula I have marked effects on CFTR function. A representative number of compounds of formula I (Compounds IE1-IE4; Table I) were tested in comparison to cysteamine and amifostine through SPQ assay in F508delCFTR homozygous bronchial epithelial cell lines (CFBE41o-) transfected with F508delCFTR (FIG. 1) and in ex vivo in nasal cells collected by nasal brushing from CF patients (FIGS. 2A and B). Freshly isolated brushed nasal epithelial cells were collected by nasal brushing, as previously described (21, 21) from 10 F508del-CFTR homozygous CF patients and from 5 non-CF healthy volunteers recruited from staff at the same time points. Both patients and healthy volunteers gave written informed consent. […] Brushes with cells were immediately transferred into RPMI 1640 medium (Invitrogen) containing 1% penicillin-streptomycin (Lonza, 17-602E), in 15-ml sterilized tubes. The tubes were incubated at 37° C. for 2 h on a thermo shaker, to remove all cell from brushes; the brushes were then removed and the cells centrifuged at 800×g (2000 rpm) for 20 min. The supernatant fractions were discarded and the cell pellet treated with […] of trypsin-versene (EDTA) solution (Lonza, 17-161) for 4 min at 37° C. to disaggregate possible cell clusters. Trypsin solution was inactivated by adding 3 ml of serum-free Bronchial Epithelial cell Growth Medium BEGM (Clonetics, Lonza, CC3170). After centrifugation at 800×g (2000 rpm) for 10 min, cells were placed in […] 25 flasks (Sarstedt Ltd, CS300) with 10 ml of BEGM medium. Nonspecific epithelial cells were removed during the daily cell washing and medium changes.

[2] = test system: BECN1, SQSTM1/p62, (phospho)p42/44 MAPK; assay: Immunoblot of autophagy and inflammation markers in nasal primary cells; type: cell-based, human; settings: 0.1 μM
From the text: Freshly isolated brushed nasal epithelial cells were collected by nasal brushing, as previously described (21, 21) from 10 F508del-CFTR homozygous CF patients and from 5 non-CF healthy volunteers recruited from staff at the same time points. Both patients and healthy volunteers gave written informed consent. […] Brushes with cells were immediately transferred into RPMI 1640 medium (Invitrogen) containing 1% penicillin-streptomycin (Lonza, 17-602E), in 15-ml sterilized tubes. The tubes were incubated at 37° C. for 2 h on a thermo shaker, to remove all cell from brushes; the brushes were then removed and the cells centrifuged at 800×g (2000 rpm) for 20 min. The supernatant fractions were discarded and the cell pellet treated with […] of trypsin-versene (EDTA) solution (Lonza, 17-161) for 4 min at 37° C. to disaggregate possible cell clusters. Trypsin solution was inactivated by adding 3 ml of serum-free Bronchial Epithelial cell Growth Medium BEGM (Clonetics, Lonza, CC3170). After centrifugation at 800×g (2000 rpm) for 10 min, cells were placed in CELLC T 25 flasks (Sarstedt Ltd, CS300) with 10 ml of BEGM medium. Nonspecific epithelial cells were removed during the daily cell washing and medium changes.
The proteins of cell lines lysates or lung or small intestine homogenates, obtained from treated and untreated cells or mice, were quantified by a Bio-Rad protein assay to ensure equal protein loading before immunoblot analysis. Fifty micrograms of proteins were loaded in each lane. Antibodies against SQSTM1, (Sigma Aldrich,P0067) 1:1000, BECN1 (Abcam, ab58878), 1:1000, CFTR clone CF3 (Abcam, ab2784) 1:1000 or anti-CFTR antibody 660 1:1000, Phospho-p44/42 MAPK (Erk1/2) (Thr202/Tyr204) (Cell Signaling Technology, #91101) 1:1000, TG2 (CUB7402, NEOMARKER) 1:1000 were used. Normalization was performed by probing the membrane with anti-β-actin (Cell Signaling, #4970) 1:1000 or anti-α-tubulin (Cell Signaling Technology, 2148) 1:1000.

F508delCFTR [3] = biological target: T1, F508delCFTR; assay: SPQ assay in CFBE41o- cells transfected with F508delCFTR; type: cell-based; set-up: expressed in transfected cells; host or cells: CFBE41o- cells
Experimental: The compounds of formula I have marked effects on CFTR function. A representative number of compounds of formula I (Compounds IE1-IE4; Table I) were tested in comparison to cysteamine and amifostine through SPQ assay in F508delCFTR homozygous bronchial epithelial cell lines (CFBE41o-) transfected with F508delCFTR (FIG. 1) and in ex vivo in nasal cells collected by nasal brushing from CF patients (FIGS. 2A and B). Cell lines experiments. CFBE41l- and 16HBE14o-cells were cultured in Minimum Essential Medium (MEM) with Earle's salt, 200 mM L-Glutamine, 10% FBS and penicillin/streptomycin. CFBE41o-cells were transfected with AF508-CFTR at 37° C. and incubated for 18 h with cysteamine (250 μM) or different concentration of IE1.

T1 sequence (P13569 with tags, fused parts or gaps DEL508-508): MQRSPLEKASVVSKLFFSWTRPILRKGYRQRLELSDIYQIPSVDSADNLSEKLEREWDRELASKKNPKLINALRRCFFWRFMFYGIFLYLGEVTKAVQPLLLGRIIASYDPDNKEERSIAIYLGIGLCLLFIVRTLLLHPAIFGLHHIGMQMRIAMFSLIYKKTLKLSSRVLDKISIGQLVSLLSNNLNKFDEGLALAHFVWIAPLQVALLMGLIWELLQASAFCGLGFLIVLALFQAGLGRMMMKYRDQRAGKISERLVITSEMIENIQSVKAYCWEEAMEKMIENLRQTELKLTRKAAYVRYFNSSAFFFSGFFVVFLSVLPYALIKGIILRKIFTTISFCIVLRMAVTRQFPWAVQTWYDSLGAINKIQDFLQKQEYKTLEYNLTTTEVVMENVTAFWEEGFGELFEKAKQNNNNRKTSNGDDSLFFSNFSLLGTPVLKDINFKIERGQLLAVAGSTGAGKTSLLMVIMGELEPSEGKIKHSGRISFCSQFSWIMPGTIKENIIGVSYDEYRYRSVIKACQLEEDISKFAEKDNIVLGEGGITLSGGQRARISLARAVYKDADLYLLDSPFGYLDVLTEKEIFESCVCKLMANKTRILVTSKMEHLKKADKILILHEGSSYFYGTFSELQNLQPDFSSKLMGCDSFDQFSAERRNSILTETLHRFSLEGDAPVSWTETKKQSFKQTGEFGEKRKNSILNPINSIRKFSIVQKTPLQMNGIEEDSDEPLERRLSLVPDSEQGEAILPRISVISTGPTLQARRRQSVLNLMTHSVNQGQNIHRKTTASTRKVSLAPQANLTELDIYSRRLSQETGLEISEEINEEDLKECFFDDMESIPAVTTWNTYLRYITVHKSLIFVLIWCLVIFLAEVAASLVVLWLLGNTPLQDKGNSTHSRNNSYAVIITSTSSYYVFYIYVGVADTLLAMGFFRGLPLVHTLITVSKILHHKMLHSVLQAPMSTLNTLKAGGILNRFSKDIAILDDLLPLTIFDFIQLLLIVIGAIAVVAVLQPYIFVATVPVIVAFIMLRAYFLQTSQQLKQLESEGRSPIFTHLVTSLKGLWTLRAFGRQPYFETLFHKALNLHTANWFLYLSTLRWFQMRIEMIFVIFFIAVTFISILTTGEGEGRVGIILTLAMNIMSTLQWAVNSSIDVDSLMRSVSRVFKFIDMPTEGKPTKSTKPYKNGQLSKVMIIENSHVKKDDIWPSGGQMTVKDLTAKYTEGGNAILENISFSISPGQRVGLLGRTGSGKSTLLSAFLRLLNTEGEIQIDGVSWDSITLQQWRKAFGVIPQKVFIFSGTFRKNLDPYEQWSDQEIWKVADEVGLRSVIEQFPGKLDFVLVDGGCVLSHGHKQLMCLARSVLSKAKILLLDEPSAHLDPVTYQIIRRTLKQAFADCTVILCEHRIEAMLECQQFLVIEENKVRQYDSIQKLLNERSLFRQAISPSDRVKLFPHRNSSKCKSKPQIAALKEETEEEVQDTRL

NCCCS [IE1, 3-aminopropane-1-thiol]
CFTR function after wash out with EGCG added (F508delCFTR [1]; 48 h after wash out, epigallocatechin gallate added, nasal primary cells): effect is preserved | CFTR function after wash out (F508delCFTR [1]; 48 h after wash out, nasal primary cells): loses its efficacy | Efficacy on CFTR function compared with VX-809 (F508delCFTR [1]; VX-809 3 μM, FIG. 2A): more efficacious than VX-809 | CFTR function after wash out (F508delCFTR [1]; up to 24 h after wash out, nasal cells): able to maintain CFTR function | BECN1 level [2]: able to restore BECN1 | Inflammation biomarkers (phospho)p42/44 MAPK [2]: decrease | p62 levels [2]: reduce p62 levels | Effect on (phospho)p42/44 MAPK after 48 h in presence of EGCG ([2]; 48 h, EGCG): maintained | Effect on BECN1 and p62 after 48 h with EGCG addition ([2]; 48 h, EGCG addition): preserved | Effect on (phospho)p42/44 MAPK after 48 h ([2]; after 48 h): completely lost | Effect on BECN1 and p62 after 48 h ([2]; after 48 h): disappears | Concentration lower than cysteamine for equal restoration of CFTR function (F508delCFTR [3]; 0.1 μM vs 250 μM): more than 2500 fold | % Function vs 16HBE (F508delCFTR [3]; 0.1 μM, CFBE41o- transfected with F508delCFTR): 72% | CFTR function after wash out with EGCG added (F508delCFTR [3]; 48 h after wash out, epigallocatechin gallate added, CFBE cells): effect is preserved | CFTR function after wash out (F508delCFTR [3]; 48 h after wash out, CFBE cells): loses its efficacy | CFTR function after wash out (F508delCFTR [3]; up to 24 h after wash out, CFBE cells): able to maintain CFTR function
